Measurements published in the NIST ThermoML archive (doi:10.1016/j.fluid.2009.09.019).
Numbers after ± are expanded uncertainties.

Legend:
[1] = 293.2 K; 101.33 kPa; Liquid; Vibrating tube method
[2] = refractive index (Na D-line) (dimensionless); conditions: 293.2 K; 101.33 kPa; Liquid; Standard Abbe refractometry

| mass density [1] | refractive index [2] | SMILES |
| --- | --- | --- |
| 778.12 ± 0.61 kg/m3 | 1.4263 ± 0.0005 | C1CCCCC1 [cyclohexane] |
| 684.1 ± 0.25 kg/m3 | 1.3873 ± 0.0004 | CCCCCCC [heptane] |
| 660.1 ± 0.25 kg/m3 | 1.375 ± 0.0004 | CCCCCC [hexane] |

| SMILES | mass density [1] | refractive index [2] |
| --- | --- | --- |
| Cc1ccccc1 [toluene] |  | 1.4967 ± 0.0004 |
| O=C1CCCO1 [γ-butyrolactone] | 1128.7 ± 1.1 kg/m3 | 1.4344 ± 0.0005 |
